Experimental data from patent US20240180908A1, “TREATMENT OF KIDNEY DISEASES” (ACLIPSE ONE, INC., priority 2021, published 2024).

Columns and labels:
[1] = PAN-injury podocyte viability assay (Cell Titer-Glo); assay type: cell-based, human; settings: human, no test compound, read-out: podocyte viability compared with untreated cells
Text: (§1) Cell Culture. The human podocyte cell line (CIHP-1) is a […] isolated from human kidney. Podocytes are highly specialized, terminally differentiated cells with a complex cellular structure. They are a critical component of glomerular filtration. Cell cycle control, growth arrest and differentiation are key to the in vivo biology of podocytes. The conditionally immortalized podocyte cell line allows an in vitro process of maturation analogous to the development and maturation of podocytes in vivo. […] These include the novel podocyte proteins nephrin, podocin, CD2AP and synaptopodin. This robust cell line is extensively characterized and validated.
(§2) The growth medium of CIHP-1 cells (Ximbio) was RPMI 1640 with 10% fetal bovine serum (FBS), 1-fold of ITS (insulin-transferrin-selenium), and 1-fold Pen/Strep. The culture condition was 33° C. with 5% CO2. The cell detachment solution was Accutase® for 5 min at 33° C. The cell line passage ration was 1:3 every 3 or 4 days.
(§3) PAN-injury podocyte viability assay. Differentiated podocytes were either pretreated with dimethyl sulfoxide (DMSO) as vehicle, lobeglitazone, pioglitazone, rosiglitazone, or dexamethasone followed by puromycin aminonucleoside (PAN) treatment (5 μg/ml). Viability assays were performed after 3 or 5 days of treatments. […] For compound treatment, compounds were diluted to 20, 2, 0.2, 0.02 and 0.002 mM with DMSO. A volume of 1.8 μL of compounds was taken to 358.2 μL of culture medium and mixed. Media from plates were aspirated. A volume of 100 μL compound-added medium was added to each plate. Plates were placed in the incubator for 4 hours.
(§4) On day 0, CIHP-1 cells were seeded into two 96-well white plates using 5000 cell/well for 3 days (plate 1) or 2500 cell/well for 5 days (plate 2) treatment.
(§5) For compound treatment on Day 1, culture medium was aspirated. For each cell plate, 100 μl/well fresh medium with compounds was added for 4 hour. DMSO was used as control. After compound treatment for 4 hours, PAN was added to a final concentration of 5 μg/ml. No PAN treatment was used for the negative control. There was no medium change for the whole process.
(§6) On Day 4, for the first plate, Cell Titer-Glo (CTG) assay was used by adding 60 μl of CTG reagent into each well of the first plate, incubating at room temperature with shaking for 20 min, and then reading by the EnVision plate reader.
(§7) On Day 6, for the second plate, CTG assay was used by adding 60 μl of CTG reagent into each well of the second plate, incubating at RT with shaking for 20 min, and then reading by the EnVision plate reader.

[2] = test system: human podocyte cell line (CIHP-1); assay: as above; assay type: cell-based; settings: for CIHP-1 proliferation by CTG, percentage compared to DMSO control (without PAN): 4 h pretreatment
Text: as §1, §2, §3, §4, §5, §6, §7

[3] = compound 0.1 μM, PAN 5 μg/ml 3-day treatment
[4] = compound 0.1 μM, PAN 5 μg/ml 5-day treatment
[5] = compound 1 μM, PAN 5 μg/ml 3-day treatment
[6] = compound 1 μM, PAN 5 μg/ml 5-day treatment
[7] = compound 10 μM, PAN 5 μg/ml 3-day treatment
[8] = compound 10 μM, PAN 5 μg/ml 5-day treatment
[9] = compound 0.01 μM, PAN 5 μg/ml 3-day treatment
[10] = compound 0.01 μM, PAN 5 μg/ml 5-day treatment
[11] = compound 100 μM, PAN 5 μg/ml 3-day treatment
[12] = compound 100 μM, PAN 5 μg/ml 5-day treatment

| SMILES | viability at 3 days, 5 μg/ml ([1]; 5 μg/ml PAN for 3 days) [%] | viability at 5 days, 5 μg/ml ([1]; 5 μg/ml PAN for 5 days) [%] | CIHP-1 proliferation by CTG, percentage compared to DMSO control (without PAN) [2, 3] [%] | CIHP-1 proliferation by CTG, percentage compared to DMSO control (without PAN) [2, 4] [%] | CIHP-1 proliferation by CTG, percentage compared to DMSO control (without PAN) [2, 5] [%] | CIHP-1 proliferation by CTG, percentage compared to DMSO control (without PAN) [2, 6] [%] | CIHP-1 proliferation by CTG, percentage compared to DMSO control (without PAN) [2, 7] [%] | CIHP-1 proliferation by CTG, percentage compared to DMSO control (without PAN) [2, 8] [%] | protection to PAN-injured podocytes ([2]; 0.01 to 100 μM, 3 days of PAN exposure) | improvement of podocyte viability ([2]; 0.01 to 100 μM, after 5 days of PAN injury) | CIHP-1 proliferation by CTG, percentage compared to DMSO control (without PAN) [2, 9] [%] | CIHP-1 proliferation by CTG, percentage compared to DMSO control (without PAN) [2, 10] [%] | CIHP-1 proliferation by CTG, percentage compared to DMSO control (without PAN) [2, 11] [%] | CIHP-1 proliferation by CTG, percentage compared to DMSO control (without PAN) [2, 12] [%] | concentration at which toxicity to the podocyte cells was observed ([2]; human, 3 days) [µM] |
| --- | --- | --- | --- | --- | --- | --- | --- | --- | --- | --- | --- | --- | --- | --- | --- |
| CN(C)c1ncnc2c1ncn2[C@@H]1O[C@H](CO)[C@@H](N)[C@H]1O [PAN, puromycin aminonucleoside] | 70 to 80 | 30 to 40 |  |  |  |  |  |  |  |  |  |  |  |  |  |
| C[C@@H]1C[C@H]2[C@@H]3CCC4=CC(=O)C=C[C@]4(C)[C@@]3(F)[C@@H](O)C[C@]2(C)[C@@]1(O)C(=O)CO [dexamethasone] |  |  | 79.9 | 34.2 | 73.9 | 34.9 | 74.7 | 33.6 |  |  |  |  |  |  |  |
| COc1ccc(Oc2cc(N(C)CCOc3ccc(CC4SC(=O)NC4=O)cc3)ncn2)cc1 (centres unmarked) [lobeglitazone, 5-(4-(2-((6-(4-Methoxyphenoxy)pyrimidin-4-yl)(methyl)amino)ethoxy)benzyl) thiazolidine-2,4-dione] |  |  | 99.9 | 33.0 | 103.3 | 32.8 | 105 | 33.7 | significant protection | did not show significant improvement | 102.7 | 31.0 | 19.9 | 6.2 | 100 |
| CCc1ccc(CCOc2ccc(CC3SC(=O)NC3=O)cc2)nc1 (centres unmarked) [pioglitazone] |  |  | 101.3 | 38.3 | 97.3 | 30.0 | 94.3 | 33.4 |  |  | 102.4 | 35.2 | 90.9 | 22.4 |  |
| CN(CCOc1ccc(CC2SC(=O)NC2=O)cc1)c1ccccn1 (centres unmarked) [rosiglitazone] |  |  | 76.0 | 32.7 | 74.5 | 33.6 | 69.2 | 29.1 |  |  | 72.4 | 32.6 | 69.6 | 15.0 |  |
